Laboratory results as given in ChEMBL document CHEMBL1201862, “PubChem BioAssay data set” (2004).
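A five-concentration, 48-hour dose response in 96-well plates underlies each endpoint, interpolated linearly between surrounding concentrations. GI50: concentration for 50% inhibition of growth.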 The source made the active and inactive calls. Rule as the data show it: active = GI50 up to about 1.1 µM and inactive = higher.

Legend:
Assay in all cases: growth of human tumour cells (NCI), 48 h
LXFL 529 = system: LXFL 529
SNB-78 = system: SNB-78
XF498 = system: XF498
HOP-18 = system: HOP-18
DMS-114 = system: DMS-114
DLD-1 = system: DLD-1
KM-20L2 = system: KM-20L2
M19-MEL = system: M19-MEL
RXF 631 = system: RXF 631

Measured: GI50

CCOc1ccc(OP2(=O)NC(=O)C=C(C)N2)cc1 (centres undefined)
inactive: LXFL 529 > 100 µM | SNB-78 > 100 µM | XF498 > 100 µM | HOP-18 > 100 µM | DMS-114 > 100 µM | DLD-1 > 100 µM | KM-20L2 > 100 µM | M19-MEL > 100 µM | RXF 631 > 100 µM

CCOc1nc(OCC)nc(-c2cccn2-c2ccccc2)n1
inactive: SNB-78 32.3 µM | DMS-114 27.7 µM | M19-MEL 37.2 µM | RXF 631 57.5 µM

O=C(c1ccncc1)n1nc(-c2ccccc2)c(/N=N/c2ccc([N+](=O)[O-])cc2)c1-c1ccccc1
inactive: LXFL 529 13.1 µM | SNB-78 14.8 µM | XF498 57.8 µM | DMS-114 24.4 µM | DLD-1 > 100 µM | M19-MEL > 100 µM

O=C1CCC(Cl)=CC2CCCN12 (centres undefined)
inactive: LXFL 529 > 100 µM | SNB-78 > 100 µM | DMS-114 > 100 µM | DLD-1 > 100 µM | KM-20L2 > 100 µM | M19-MEL > 100 µM

COc1ccc(-c2c(C3=NCCCN3)nnn2-c2ccccc2)cc1
inactive: LXFL 529 > 100 µM | SNB-78 > 100 µM | XF498 > 100 µM | HOP-18 > 100 µM | DMS-114 > 100 µM | DLD-1 > 100 µM | KM-20L2 > 100 µM | M19-MEL > 100 µM

COc1ccc2c([nH]c3cc(O)c(C)cc32)c1C=O
inactive: LXFL 529 > 25 µM | SNB-78 > 25 µM | XF498 > 25 µM | DMS-114 > 25 µM | DLD-1 > 25 µM | KM-20L2 > 25 µM | M19-MEL > 25 µM

CC1C=CC(C(N)C(=O)O)O1 (centres undefined)
inactive: LXFL 529 > 100 µM | SNB-78 > 100 µM | XF498 > 100 µM | DMS-114 > 100 µM | DLD-1 > 100 µM | KM-20L2 > 100 µM | M19-MEL > 100 µM

C[Si](C)(C)/C=C/CN1C(=O)CCC1O (centres undefined)
inactive: LXFL 529 > 100 µM | SNB-78 > 100 µM | XF498 > 100 µM | HOP-18 > 100 µM | DMS-114 > 100 µM | DLD-1 > 100 µM | KM-20L2 > 100 µM | M19-MEL > 100 µM

Nn1c(S)nnc1N/N=C1/C(=O)Nc2c(Cl)cc(Cl)cc21
inactive: LXFL 529 59.7 µM | SNB-78 > 100 µM | HOP-18 > 100 µM | DMS-114 > 100 µM | DLD-1 > 100 µM | KM-20L2 81.8 µM | M19-MEL > 100 µM

Nc1ccc2nc(Nc3ccc(Cl)c(Cl)c3)cnc2c1
inactive: SNB-78 24.6 µM | DMS-114 10 µM | DLD-1 34.7 µM | M19-MEL 18.2 µM

O=c1[nH]c(=O)n(C2CC(O)C(CS)O2)cc1F (centres undefined)
inactive: LXFL 529 > 10 µM | SNB-78 > 100 µM | XF498 > 100 µM | HOP-18 > 100 µM | DMS-114 > 100 µM | DLD-1 > 100 µM | KM-20L2 78.9 µM | M19-MEL 77.6 µM

CC(=O)O/N=C(Cl)/C(Cl)=N/OC(C)=O
inactive: LXFL 529 > 100 µM | SNB-78 > 100 µM | XF498 > 100 µM | HOP-18 > 100 µM | DMS-114 > 100 µM | DLD-1 > 100 µM | KM-20L2 > 100 µM

C=CCNC(=S)OCCCCCCCCCC
inactive: LXFL 529 14.9 µM | SNB-78 19.5 µM | XF498 16 µM | HOP-18 22.3 µM | DMS-114 17 µM | DLD-1 16.4 µM | KM-20L2 18.6 µM | M19-MEL 17.6 µM

CC1OC(n2ccc(=O)[nH]c2=O)C=C(OC(=O)c2ccccc2)C1=O (centres undefined)
inactive: SNB-78 > 100 µM | XF498 21.2 µM | HOP-18 38.4 µM | DLD-1 > 100 µM | KM-20L2 73.5 µM | M19-MEL > 100 µM

CC(=O)OCC1OC(N=[N+]=[N-])C(OC(C)=O)C(OC(C)=O)C1OC1OC(COC(C)=O)C(OC(C)=O)C(OC(C)=O)C1OC(C)=O (centres undefined)
inactive: LXFL 529 > 100 µM | SNB-78 71.6 µM | XF498 > 100 µM | DMS-114 > 100 µM | KM-20L2 > 100 µM | M19-MEL > 100 µM | RXF 631 > 100 µM

CN1CCc2c1nc(-c1ccccc1)c1c2N(C)CC1
inactive: LXFL 529 52.2 µM | SNB-78 > 100 µM | HOP-18 3.82 µM | DLD-1 45.3 µM | KM-20L2 52.8 µM | M19-MEL > 100 µM

O=C(CC1C(=O)Nc2ccccc2[S+]1[O-])Nc1cc(Cl)ccc1Cl (centres undefined)
inactive: LXFL 529 > 100 µM | SNB-78 > 100 µM | XF498 > 100 µM | DMS-114 > 100 µM | DLD-1 > 100 µM | KM-20L2 > 100 µM | M19-MEL > 100 µM | RXF 631 > 100 µM

FC(F)(F)c1cccc2ns[s+]c12
inactive: LXFL 529 > 100 µM | SNB-78 > 100 µM | XF498 > 100 µM | HOP-18 > 100 µM | DLD-1 35 µM | KM-20L2 > 100 µM | M19-MEL > 100 µM | RXF 631 > 100 µM

CCC1(O)CC(c2ccccc2)N(C)C(c2ccccc2)C1 (centres undefined)
inactive: LXFL 529 > 100 µM | SNB-78 > 100 µM | DMS-114 > 100 µM | DLD-1 > 100 µM | KM-20L2 > 100 µM | M19-MEL > 100 µM | RXF 631 > 100 µM

CCSc1nc(COC(=O)NC)c(COC(=O)NC)n1C
inactive: LXFL 529 > 37.2 µM | SNB-78 > 70.1 µM | HOP-18 > 100 µM | DMS-114 46.6 µM | DLD-1 > 92.3 µM | KM-20L2 > 100 µM | M19-MEL > 63.5 µM | RXF 631 > 100 µM
